Laboratory results: patent US20190247343A1, “USE OF FENOFIBRIC ACID IN THE TREATMENT OF HEPATIC DISEASES” (GENCOD, priority 2016, published 2019)
Converted amounts (≈) assume the structure as drawn. “Also recorded” adds a separate entry of the source. Values belong to the compound of their own block, whether it stands above or below them.

Tests used:
[1] = Solubility at saturation of salts and crystalline forms, buffered solution pH 6.0; type: physicochemical; details: aqueous buffer pH 6.0, after 24 hours of stirring, European Pharmacopoeia criteria
Description: The purpose of this example is to determine the solubility characteristics of different crystalline forms and salts of fenofibric acid, with a view to administration by the oral mucosal route, in order to treat or forestall patients of liver diseases, such as fatty liver disease.
The solubilisation kinetics are determined by placing fenofibric acid samples at an excess in an aqueous buffered solution at pH 6.0, equivalent to salivary pH. Samples are taken after 0.5, 1, 2, 4, 6, 12 and 24 hours. They are analysed by HPLC after centrifugation and filtration of the samples on a 0.45 μm PTFE filter.
The samples are received from several Indian and Chinese suppliers. Fenofibric acid form II is obtained from a suspension of fenofibrate (ester) in isopropanol.
The results in terms of solubility at saturation (after 24 hours of stirring) are given in the table below and are expressed as per the criteria of the European Pharmacopoeia in force at the time of the tests. The melting points are obtained by DSC (endothermic peak, onset measurement).

immortalised human cells = experiment: In vitro cellular model in NASH/NAFLD: intracellular lipid droplet content; type: cell-based; details: enriched medium, increasing concentrations, 24 hours
Text: The applicant decided to explore in vitro approaches to test fenofibric acid as a medicinal product inhibiting progression of non-alcoholic fatty liver disease/steatohepatitis. In this field, only a few data obtained in NASH/NAFLD using cellular models have been published, whereas for other liver diseases, the research models and means are more numerous and more studied. In general, immortalised cell lines and primary cell cultures are widely used to develop in vitro models for research. The immortalised primary cells are candidate cells selected for the in vitro study due to the stable phenotype thereof, but also due to a culture method that is simple and standardised to carry out. The immortalised human cells were cultured in an enriched medium containing increasing fenofibric acid concentrations. The purpose of the study consisted of measuring the intracellular lipid droplet content. The entire staining procedure is conducted at ambient temperature while protecting the samples from direct light. The images were acquired with a fluorescence microscope. The intracellular lipid droplet content was determined by labelling. […] This trend is all the more noteworthy at the highest fenofibric acid concentration wherein the quantity and size of the droplets decreased in relation to that observed with the lowest dose.

mouse model of NASH = experiment: In vivo mouse model of non-alcoholic steatohepatitis; details: mice on high-fat feed and fructose water, per os once daily
Description: Fenofibric acid is studied at 2 doses and administered per os once daily. […] The number of male mice is 60 for the curative part of the study. They follow the normal light cycle, and are divided into enriched ventilated cages, after a one-week acclimatisation period. The mice are fed with high-fat content feed and fructose-enriched tap water. The mice are treated with the references or with the test formulation according to 2 doses, with daily administration per os for about 2 months. […] At different weeks of treatment, blood is collected to measure the blood glucose level, insulin, total cholesterol and triglyceride level, as well as the ALT and AST levels. After the final collection, the mice are sacrificed to measure the total hepatic cholesterol, triglycerides and fatty acid levels. Liver samples are also collected for histological analysis and the NAS score/index.

[2] = In vitro oral penetration study, Franz type diffusion cells; type: in vitro ADME, pig; details: 37° C., different concentrations and pH 4.5-7.4
Description: One of the preferred modes of administration is the oral mucous membrane route. In order to achieve this, the applicant prepared fenofibric acid solutions from samples provided by the supplier Harman Finochem (India). The in vitro penetration of the fenofibric acid formulation is evaluated using Franz type diffusion cells at 37° C., a system routinely used to evaluate the in vitro penetration of compounds through the skin, but with the oral mucous membrane as the membrane in this instance.
The applicant chose pig oral tissue because it has a non-keratinised morphology, relatively similar to the human oral epithelium (Gandhi, R. B. and Robinson. Adv Drug Deli Rev, 13:43-74, 1994). […]
The receptor compartment is filled with pH 7.4 buffer at 37° C. and the donor compartment with micronised fenofibric acid solution at 37° C. of different concentrations (from 0.2 mg/ml) with a pH also adjusted to pH 7.4 or a solution of fenofibric acid (0.5 mg/ml) in buffer solutions of different pH (4.5, 6.0, 6.8 and 7.4). Samples are taken from the receptor compartment at a predetermined time interval (2, 5, 10, 15, 30, 60, 90, 120, 150 and 180 minutes), replaced by the same volume of buffer and subsequently analysed using the HPLC method.
The quantity of fenofibric acid presented in the […] compartment is determined as a function of time. […]

[3] = Aqueous phase solubility as a function of pH / medium; type: physicochemical
[4] = Solubility in 50:50 binary mixture with a surfactant; type: physicochemical
[5] = Dissolution kinetics, USP type II paddle; type: physicochemical; details: for fenofibric acid dissolved: FaSSIF and FeSSIF media
Description: The applicant studied the dissolution profile of several batches of fenofibric acid received from several suppliers. The starting material batches include different granulometric characteristics including one standard grade (non-micronised) and several micronised batches.
The batches of fenofibric acid were prepared in various pharmaceutical forms including the following excipients: hypromellose, milk protein concentrate, corn starch, Lactose monohydrate (0.4 mg/50 mg of active ingredient), sodium lauryl sulphate as surfactant, magnesium stearate, and talc as a flow agent required during production.
Dissolution tests were carried out on most of the formulation in media such as acetate buffer at […] and purified water. Similarly, the rings were tested in […] media simulating fed and fasting conditions, with addition of enzymes (media referred respectively as FeSSIF and FaSSIF) were also tested after the 50 and 100 mg doses. The USP type II paddle system was retained for the tests with 1000 ml of volume, 37° C. and the samples, taken at 0, 2, 5, 10, 15, 20, 30, 45 and 60 minutes, were analysed by HPLC without replenishing the media.

Solubility at saturation [1]: Slightly soluble
Compound: CC(C)(Oc1ccc(C(=O)c2ccc(Cl)cc2)cc1)C(=O)O [Fenofibric acid form II]

solubility ([3]; 0.01M sodium lauryl sulphate, aqueous with cosolvent or surfactant or cyclodextrin): 90 µg/mL (≈ 282 µM) | solubility ([3]; 0.1M sodium lauryl sulphate, aqueous with cosolvent or surfactant or cyclodextrin): 810 µg/mL (≈ 2540 µM) | solubility ([3]; 0.1N HCl, simulated gastric fluid): 2 µg/mL (≈ 6.27 µM) | solubility ([3]; aqueous buffer, Phosphate buffer pH = 4.5): 40 µg/mL (≈ 125 µM) | solubility ([3]; aqueous buffer, Phosphate buffer pH = 5.5): 330 µg/mL (≈ 1040 µM) | solubility ([3]; aqueous buffer, Phosphate buffer pH = 6.5): 1060 µg/mL (≈ 3330 µM) | solubility as a function of pH ([3]; greatest at pH values closest to neutrality): increases as a function of pH | solubility ([3]; purified water, water): 20 µg/mL (≈ 62.7 µM) | Solubility in water ([4]; surfactant Cremophor EL, 50:50 binary mixture): 56 mg/g | Solubility in water ([4]; surfactant Cremophor RH40, 50:50 binary mixture): 59 mg/g | Solubility in water ([4]; surfactant Labrasol, 50:50 binary mixture): 55 mg/g | Solubility in water ([4]; surfactant Solutol HS15, 50:50 binary mixture): 60 mg/g | Solubility in water ([4]; surfactant Tween 80, 50:50 binary mixture): 61 mg/g | fenofibric acid dissolved ([5]; after 10 minutes): over 80% | fenofibric acid dissolved ([5]; after 30 minutes): entirety | dissolution of the active ingredient alone ([5]; after 60 minutes, paddle, 1000 ml, 37° C.): totally dissolved
Compound: CC(C)(Oc1ccc(C(=O)c2ccc(Cl)cc2)cc1)C(=O)O [fenofibric acid, 2-(4-(4-chlorobenzoyl)phenoxy)-2-methylpropanoic]
intracellular lipid droplet content (immortalised human cells): dose-dependent fat reduction | increase in the triglyceride level (mouse model of NASH): significantly inhibit the increase | increase in the weight of the liver (mouse model of NASH): significantly inhibit the increase | plasma ALT concentration (mouse model of NASH): decreased substantially | development of fatty liver disease (macroscopic and microscopic examination of the liver) (mouse model of NASH; about 2 months): prevented the development of fatty liver disease | plasma ALT concentration (mouse model of NASH; listed as Fenofibric acid): notably reduced | increase in the fatty liver disease activity score (mouse model of NASH; liver histology): significantly inhibit the increase | increase in the fibrotic zones (mouse model of NASH; liver histology): significantly inhibit the increase | penetration through the porcine oral mucous membrane [2]: noteworthy penetration; also recorded: rapidly absorbed
